Measurements as given in patent publication US10407409B2, “6-(5-hydroxy-1H-pyrazol-1-yl)nicotinamide inhibitors of PHD” (Takeda Pharmaceutical Company Limited, priority 2013, dated 2019).

Columns and labels:
[1] = tested on: HIF1a protein in H9c2 rat cardiomyocytes; assay: Cell-based HIF-alpha stabilization assay (inhibition of PHD in cells); conditions: Rattus norvegicus, H9c2, 24 h, 24 hrs compound incubation, HIF1a protein by ELISA, read-out: Inhibition of PHD in cells (pEC50) (converted)
Method in brief: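 HIF1a stabilization was measured by ELISA on lysates of H9c2 rat cardiomyocytes after 24 h exposure to 11 serial compound concentrations, expressed relative to the desferrioxamine maximum. Curve fits gave EC50. EC50pos denotes the concentration producing half the desferrioxamine maximal response.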

[2] = molecular target: PHD2 enzyme (residues 181-417) (Homo sapiens (Human), UniProt Q9GZT9); assay: Inhibition of PHD enzyme (LC/MS peptide hydroxylation assay); assay type: biochemical; conditions: PHD2 (residues 181-417) 5 nM, 60 min pre-incubation; -log(IC50), IC50 molar
PHD2 enzyme (residues 181-417), sequence (Q9GZT9 181-417): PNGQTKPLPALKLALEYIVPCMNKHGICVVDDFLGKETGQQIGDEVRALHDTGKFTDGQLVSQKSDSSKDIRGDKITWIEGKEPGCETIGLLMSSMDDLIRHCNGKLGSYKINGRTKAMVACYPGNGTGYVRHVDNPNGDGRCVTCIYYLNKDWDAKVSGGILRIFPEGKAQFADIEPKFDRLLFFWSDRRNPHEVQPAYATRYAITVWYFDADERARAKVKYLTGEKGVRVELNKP
Method in brief: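 Hydroxylated peptide quantified by LC/MS after 60 min turnover of 1 uM biotinylated peptide with 2 uM 2-oxoglutarate and 1 mM ascorbate, stopped by excess tight-binding inhibitor. Beforehand, 5 nM enzyme and compound were preincubated 60 min at RT, pH 7.3 HEPES/KCl/TCEP/FeCl2/BSA buffer. Values as pIC50 (−log molar IC50).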

| SMILES | PHD Inhibition (pIC50) [2] | EC50 [1] [nM] |
| --- | --- | --- |
| COCC1(NC(=O)c2ccc(-n3ncc(-c4ccc(C#N)cc4)c3O)nc2)CCCC1 [Example 149, 6-(4-(4-cyanophenyl)-5-hydroxy-1H-pyrazol-1-yl)-N-(1-(methoxymethyl)cyclopentyl)nicotinamide] | 7.28 | 776 |
| COC[C@H]1CCC[C@H]1NC(=O)c1ccc(-n2ncc(-c3ccc(C#N)cc3)c2O)nc1 [Example 110, 6-(4-(4-cyanophenyl)-5-hydroxy-1H-pyrazol-1-yl)-N-((1R,2S)-2-(methoxymethyl)cyclopentyl)nicotinamide] | 8.1 | 1230 |
| Cc1c(C#N)ccc(-c2cnn(-c3ccc(C(=O)N4CCN(C5CC5)CC4)cn3)c2O)c1C [Example 310, 4-(1-(5-(4-cyclopropylpiperazine-1-carbonyl)pyridin-2-yl)-5-hydroxy-1H-pyrazol-4-yl)-2,3-dimethylbenzonitrile] | 8.13 | 3160 |
| Cc1cc(C#N)ccc1-c1cnn(-c2ccc(C(=O)NCCOC(F)(F)F)cn2)c1O [Example 250, 6-(4-(4-cyano-2-methylphenyl)-5-hydroxy-1H-pyrazol-1-yl)-N-(2-(trifluoromethoxy)ethyl)nicotinamide] | 8 | 457 |
| Cc1c(-c2cnn(-c3ccc(C(=O)N4CC(N(C)C)C4)cn3)c2O)ccc(C#N)c1F [Example 321, 4-(1-(5-(3-(dimethylamino)azetidine-1-carbonyl)pyridin-2-yl)-5-hydroxy-1H-pyrazol-4-yl)-2-fluoro-3-methylbenzonitrile] | 8.40 | 589 |
| Cc1cc(C#N)ccc1-c1cnn(-c2ccc(C(=O)N3CCC[C@@H]3CN3CCCC3)cn2)c1O [Example 365, (R)-4-(5-hydroxy-1-(5-(2-(pyrrolidin-1-ylmethyl)pyrrolidine-1-carbonyl)pyridin-2-yl)-1H-pyrazol-4-yl)-3-methylbenzonitrile] | 7.80 | 417 |
| CCN(C)[C@@H]1CCCN(C(=O)c2ccc(-n3ncc(-c4ccc(C#N)cc4C)c3O)nc2)C1 [Example 382, (R)-4-(1-(5-(3-(ethyl(methyl)amino)piperidine-1-carbonyl)pyridin-2-yl)-5-hydroxy-1H-pyrazol-4-yl)-3-methylbenzonitrile] | 8.00 | 977 |
| COCCC1(NC(=O)c2ccc(-n3ncc(-c4ccc(C#N)cc4OC)c3O)nc2)CC1 [Example 168, 6-(4-(4-cyano-2-methoxyphenyl)-5-hydroxy-1H-pyrazol-1-yl)-N-(1-(2-methoxyethyl)cyclopropyl)nicotinamide] | 8.1 | 437 |
| N#Cc1ccc(-c2cnn(-c3ccc(C(=O)NCC4CC(F)(F)C4)cn3)c2O)cc1 [Example 264, 6-(4-(4-cyanophenyl)-5-hydroxy-1H-pyrazol-1-yl)-N-((3,3-difluorocyclobutyl)methyl)nicotinamide] | 6.99 | 1620 |
| COCCC1(NC(=O)c2ccc(-n3ncc(-c4ccc(C#N)cc4C)c3O)nc2)CCCC1 [Example 356] | 8.16 | 977 |
| CO[C@H](C)CCNC(=O)c1ccc(-n2ncc(-c3ccc(C#N)cc3C)c2O)nc1 [Example 371, (R)-6-(4-(4-cyano-2-methylphenyl)-5-hydroxy-1H-pyrazol-1-yl)-N-(3-methoxybutyl)nicotinamide] | 8.20 | 832 |
| CCN1CCN(C(=O)c2ccc(-n3ncc(-c4ccc(C#N)cc4C)c3O)nc2)[C@H](C)C1 [Example 434, (R)-4-(1-(5-(4-ethyl-2-methylpiperazine-1-carbonyl)pyridin-2-yl)-5-hydroxy-1H-pyrazol-4-yl)-3-methylbenzonitrile] | 8.20 | 1290 |
| N#Cc1ccc(-c2cnn(-c3ccc(C(=O)NCC4(F)CCCCC4)cn3)c2O)cc1 [Example 263, 6-(4-(4-cyanophenyl)-5-hydroxy-1H-pyrazol-1-yl)-N-((1-fluorocyclohexyl)methyl)nicotinamide] | 7.22 | 1230 |
| Cc1c(-c2cnn(-c3ccc(C(=O)N4CCC[C@H](N(C)CC(F)F)C4)cn3)c2O)ccc(C#N)c1F [Example 333, (S)-4-(1-(5-(3-((2,2-difluoroethyl)(methyl)amino)piperidine-1-carbonyl)pyridin-2-yl)-5-hydroxy-1H-pyrazol-4-yl)-2-fluoro-3-methylbenzonitrile] | 8.55 | 741 |
| COCCN(C(=O)c1ccc(-n2ncc(-c3ccc(C#N)cc3C)c2O)nc1)C1CCN(C)CC1 [Example 422, 6-(4-(4-cyano-2-methylphenyl)-5-hydroxy-1H-pyrazol-1-yl)-N-(2-methoxyethyl)-N-(1-methylpiperidin-4-yl)nicotinamide] | 7.87 | 501 |

Second part, led by results:

| PHD Inhibition (pIC50) [2] | SMILES | EC50 [1] [nM] |
| --- | --- | --- |
| 8 | COc1cc(-c2cnn(-c3ccc(C(=O)NC4CCN(C5CC5)CC4)cn3)c2O)ccn1 [Example 41, N-(1-cyclopropylpiperidin-4-yl)-6-(5-hydroxy-4-(2-methoxypyridin-4-yl)-1H-pyrazol-1-yl)nicotinamide] | 550 |
| 7.02 | COc1cc(-c2cnn(-c3ccc(C(=O)NCC(C)C)cn3)c2O)ccn1 [Example 6, 6-(5-hydroxy-4-(2-methoxypyridin-4-yl)-1H-pyrazol-1-yl)-N-isobutylnicotinamide] | 955 |
| 7.46 | COc1cc(-c2cnn(-c3ccc(C(=O)N[C@H]4CC[C@H](O)CC4)cn3)c2O)ccn1 [Example 167, 6-(5-hydroxy-4-(2-methoxypyridin-4-yl)-1H-pyrazol-1-yl)-N-((1r,4r)-4-hydroxycyclohexyl)nicotinamide] | 282 |
| 8.49 | COCCCNC(=O)c1ccc(-n2ncc(-c3ccc(C#N)c(F)c3C)c2O)nc1 [Example 406, 6-(4-(4-cyano-3-fluoro-2-methylphenyl)-5-hydroxy-1H-pyrazol-1-yl)-N-(3-methoxypropyl)nicotinamide] | 191 |
| 7.03 | COc1cc(-c2cnn(-c3ccc(C(=O)NCc4ccccc4)cn3)c2O)ccn1 [Example 2, N-benzyl-6-(5-hydroxy-4-(2-methoxypyridin-4-yl)-1H-pyrazol-1-yl)nicotinamide] | 1260 |
| 7.44 | CCOCCCNC(=O)c1ccc(-n2ncc(-c3ccnc(OC)c3)c2O)nc1 [Example 12, N-(3-ethoxypropyl)-6-(5-hydroxy-4-(2-methoxypyridin-4-yl)-1H-pyrazol-1-yl)nicotinamide] | 661 |
| 7.5 | COc1cc(-c2cnn(-c3ccc(C(=O)NCC4CCN(C)CC4)cn3)c2O)ccn1 [Example 30, 6-(5-hydroxy-4-(2-methoxypyridin-4-yl)-1H-pyrazol-1-yl)-N-((1-methylpiperidin-4-yl)methyl)nicotinamide] | 2000 |
| 6.85 | COCCCCNC(=O)c1ccc(-n2ncc(-c3ccc(C#N)cc3OC)c2O)nc1 [Example 238, 6-(4-(4-cyano-2-methoxyphenyl)-5-hydroxy-1H-pyrazol-1-yl)-N-(4-methoxybutyl)nicotinamide] | 468 |
